Key:
Experiment in all cases: relative viability (nuclei count vs DMSO), 5 days (fraction); higher = more cells survive
Ruxolitinib + Luminespib = compound: N#CC[C@H](C1CCCC1)n1cc(-c2ncnc3[nH]ccc23)cn1 [Ruxolitinib] + CCNC(=O)c1noc(-c2cc(C(C)C)c(O)cc2O)c1-c1ccc(CN2CCOCC2)cc1 [Luminespib] (partner 0.01 µM)
Outline: (§1)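 Each reported value is a median over duplicate plates. It expresses relative viability: treated-well nuclei count divided by vehicle-well nuclei count. Lung cancer cell lines in 1536-well plates were dosed by pin tool a day after seeding, alone with one drug or with a fixed anchor-drug dose plus five library-drug doses (not always all listed) in √10 steps, and nuclei were counted after 5 days.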

Ruxolitinib + Phenformin = compound: N#CC[C@H](C1CCCC1)n1cc(-c2ncnc3[nH]ccc23)cn1 [Ruxolitinib] + N=C(N)NC(=N)NCCc1ccccc1 [Phenformin] (partner 250 µM)
Outline: as §1

Vismodegib + Luminespib = compound: CS(=O)(=O)c1ccc(C(=O)Nc2ccc(Cl)c(-c3ccccn3)c2)c(Cl)c1 [Vismodegib] + CCNC(=O)c1noc(-c2cc(C(C)C)c(O)cc2O)c1-c1ccc(CN2CCOCC2)cc1 [Luminespib] (partner 0.01 µM)
Outline: as §1

Ruxolitinib + Crizotinib = compound: N#CC[C@H](C1CCCC1)n1cc(-c2ncnc3[nH]ccc23)cn1 [Ruxolitinib] + C[C@@H](Oc1cc(-c2cnn(C3CCNCC3)c2)cnc1N)c1c(Cl)ccc(F)c1Cl [Crizotinib] (partner 1 µM)
Outline: as §1

Cell Line | relative viability (Ruxolitinib + Luminespib; first compound 0.08 µM) | relative viability (Ruxolitinib + Luminespib; first compound 0.253 µM) | relative viability (Ruxolitinib + Luminespib; first compound 0.8 µM) | relative viability (Ruxolitinib + Luminespib; first compound 2.53 µM) | relative viability (Ruxolitinib + Luminespib; first compound 8 µM) | relative viability (Ruxolitinib + Phenformin; first compound 0.08 µM) | relative viability (Ruxolitinib + Phenformin; first compound 0.253 µM) | relative viability (Ruxolitinib + Phenformin; first compound 0.8 µM) | relative viability (Ruxolitinib + Phenformin; first compound 2.53 µM) | relative viability (Ruxolitinib + Phenformin; first compound 8 µM) | relative viability (Vismodegib + Luminespib; first compound 0.08 µM) | relative viability (Vismodegib + Luminespib; first compound 0.253 µM) | relative viability (Vismodegib + Luminespib; first compound 0.8 µM) | relative viability (Vismodegib + Luminespib; first compound 2.53 µM) | relative viability (Vismodegib + Luminespib; first compound 8 µM) | relative viability (Ruxolitinib + Crizotinib; first compound 0.08 µM) | relative viability (Ruxolitinib + Crizotinib; first compound 0.253 µM) | relative viability (Ruxolitinib + Crizotinib; first compound 0.8 µM) | relative viability (Ruxolitinib + Crizotinib; first compound 2.53 µM) | relative viability (Ruxolitinib + Crizotinib; first compound 8 µM)
HARA | 0.9 | 0.83 | 0.897 | 0.839 | 0.342 | 0.431 | 0.536 | 0.516 | 0.391 | 0.319 | 0.699 | 0.843 | 0.888 | 0.655 | 0.779 | 1.02 | 1.02 | 1.08 | 1.09 | 0.687
LXF-289 | 0.608 | 0.784 | 0.732 | 0.674 | 0.628 | 0.509 | 0.492 | 0.538 | 0.491 | 0.497 | 0.625 | 0.691 | 0.764 | 0.611 | 0.738 | 0.777 | 0.805 | 0.781 | 0.757 | 0.737
NCI-H650 |  | 0.844 | 0.843 | 0.804 | 0.658 |  | 0.449 | 0.519 | 0.351 | 0.342 | 0.843 | 0.791 | 0.638 | 0.802 | 0.865 |  | 0.77 | 0.846 | 0.644 | 0.54
NCI-H647 | 0.18 | 0.228 | 0.367 | 0.0851 | 0.144 | 0.481 | 0.517 | 0.502 | 0.481 | 0.531 | 0.505 | 0.227 | 0.219 | 0.125 | 0.181 | 1.18 | 1.12 | 1.13 | 0.852 | 0.524
NCI-H3122 | 0.13 | 0.108 | 0.0859 | 0.0958 | 0.113 |  | 0.429 | 0.378 | 0.327 | 0.318 | 0.109 | 0.088 | 0.0658 | 0.073 | 0.0765 | 0.332 | 0.269 | 0.282 | 0.312 | 0.282
PC-3 [JPC-3] | 0.663 | 0.677 | 0.755 | 0.579 | 0.734 | 0.428 | 0.477 | 0.477 | 0.443 | 0.481 | 0.737 | 0.651 | 0.689 | 0.653 | 0.745 | 0.886 | 1 | 0.998 | 1.01 | 0.874
NCI-H1355 | 0.751 | 0.721 | 0.772 | 0.616 | 0.687 | 0.418 | 0.418 | 0.46 | 0.394 | 0.416 | 0.634 | 0.714 | 0.687 | 0.794 | 0.688 | 1.08 | 1.01 | 1.06 | 0.839 | 0.907
NCI-H1792 | 0.407 | 0.447 | 0.473 | 0.517 | 0.434 | 0.253 | 0.241 | 0.261 | 0.146 | 0.128 | 0.344 | 0.517 | 0.342 | 0.467 | 0.414 | 1.01 | 0.893 | 0.946 | 0.753 | 0.85
NCI-H838 | 0.218 | 0.233 | 0.316 | 0.239 | 0.221 | 0.602 | 0.54 | 0.465 | 0.266 | 0.263 | 0.247 | 0.271 | 0.33 | 0.409 | 0.331 | 0.751 | 0.723 | 0.682 | 0.591 | 0.342
